Laboratory results as given in BindingDB's records for doi:10.1111/j.1747-0285.2010.00965.x (Ataturk University, 2010).

Columns and labels:
Carbonic anhydrase 2 = Carbonic anhydrase 2 (Homo sapiens, UniProt P00918); experiment: Esterase Activity Assay; conditions: pH 7.4; 25 °C
Carbonic anhydrase 1 = Carbonic anhydrase 1 (Homo sapiens, UniProt P00915); experiment: Esterase Activity Assay; conditions: pH 7.4; 25 °C
Chain of Carbonic anhydrase 1 (P00915 whole entry): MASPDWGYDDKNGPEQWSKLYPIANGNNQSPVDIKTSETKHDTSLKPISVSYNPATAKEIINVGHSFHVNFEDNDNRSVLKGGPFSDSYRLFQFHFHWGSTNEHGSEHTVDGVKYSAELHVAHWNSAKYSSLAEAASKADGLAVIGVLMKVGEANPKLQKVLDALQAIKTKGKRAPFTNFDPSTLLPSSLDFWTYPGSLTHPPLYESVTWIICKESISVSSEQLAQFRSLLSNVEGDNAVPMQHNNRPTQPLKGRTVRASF

Row | Ki (Carbonic anhydrase 2) [µM] | Ki (Carbonic anhydrase 1) [µM] | Structure (SMILES)
1 |  | 1060 | O=C(O)c1ccc(O)cc1 [4-Hydroxybenzoate, III]
2 |  | 207 | O=c1oc2c(O)c(O)cc3c(=O)oc4c(O)c(O)cc1c4c23 [Elagic Acid]
3 | 210 | 408 | COc1cc(/C=C/C(=O)O)ccc1O [Ferulic acid (M5)]
4 | 695 | 919 | COc1cc(C(=O)O)cc(OC)c1O [Syringic acid]
5 | 537 | 441 | O=C(O)/C=C/c1ccc(O)cc1 [p-Coumaric Acid]

Row | Structure (SMILES) | Ki (Carbonic anhydrase 2) [µM] | Ki (Carbonic anhydrase 1) [µM]
6 | O=c1c(O)c(-c2ccc(O)c(O)c2)oc2cc(O)cc(O)c12 [2-(3,4-dihydroxyphenyl)-3,5,7-trihydroxy-chromone;hydrate] | 105 | 99
7 | O=C(O)c1cc(O)c(O)c(O)c1 [Gallic Acid, F] | 758 | 1050
